Experiments:
Conditions in all cases: 48 h
NOMO1 = assay: AUC of viability dose-response curve (% viability x log10 dose units); higher = less sensitive
In short: (§1)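 Area under the curve was integrated by trapezoidal rule from a log-logistic fit of normalised viability, with curves exceeding full viability scaled and quality-control failures removed. The fit had four parameters over log10 doses. Viability came from CellTiter-Glo One luminescence, normalised per plate to DMSO and cell-free wells, after leukemia cells adapted to each medium (500 or 1000 cells/well, 1536-well plates) were exposed to library compounds in DMSO for 48 h at 37°C. The 11 threefold doses ran from 47 μM to 0.79 nM.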

SEM cells [1] = assay: as above
In short: as §1

P12-Ichikawa = assay: as above
In short: as §1

SEM cells [2] = assay: cell viability relative to DMSO control; higher = less cytotoxic
In short: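 Viability is expressed as a percentage of DMSO wells within each plate, and cell-free wells serve as background. Seeding densities in the 1536-well plates (5 μl) were 500 cells/well for NOMO1 or SEM leukemia cells and 1000 cells/well for P12-Ichikawa. Each line was adapted for at least four passages in each medium. Library compounds in DMSO were pin-dosed at 47 μM to 0.79 nM (11 points, threefold), and CellTiter-Glo One luminescence was read after 48 h at 37°C.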

[3] = RPMI 5 mM glucose + 10% dialyzed FBS

SMILES | AUC of viability dose-response curve (NOMO1; HPLM + 10% dialyzed FBS) | AUC of viability dose-response curve (NOMO1; RPMI 5 mM glucose + 10% FBS) | AUC of viability dose-response curve (NOMO1; [3]) | AUC of viability dose-response curve (SEM cells [1]; HPLM + 10% dialyzed FBS) | AUC of viability dose-response curve (SEM cells [1]; RPMI 5 mM glucose + 10% FBS) | AUC of viability dose-response curve (SEM cells [1]; [3]) | AUC of viability dose-response curve (P12-Ichikawa; HPLM + 10% dialyzed FBS) | AUC of viability dose-response curve (P12-Ichikawa; RPMI 5 mM glucose + 10% FBS) | AUC of viability dose-response curve (P12-Ichikawa; [3]) | cell viability (SEM cells [2]; HPLM + 10% dialyzed FBS, 0.000781 µM) | cell viability (SEM cells [2]; HPLM + 10% dialyzed FBS, 0.00234 µM) | cell viability (SEM cells [2]; HPLM + 10% dialyzed FBS, 0.00702 µM) | cell viability (SEM cells [2]; HPLM + 10% dialyzed FBS, 0.0211 µM) | cell viability (SEM cells [2]; HPLM + 10% dialyzed FBS, 0.0632 µM) | cell viability (SEM cells [2]; HPLM + 10% dialyzed FBS, 0.19 µM) | cell viability (SEM cells [2]; HPLM + 10% dialyzed FBS, 0.569 µM) | cell viability (SEM cells [2]; HPLM + 10% dialyzed FBS, 1.71 µM) | cell viability (SEM cells [2]; HPLM + 10% dialyzed FBS, 5.12 µM) | cell viability (SEM cells [2]; HPLM + 10% dialyzed FBS, 15.4 µM) | cell viability (SEM cells [2]; HPLM + 10% dialyzed FBS, 46.1 µM) | cell viability (SEM cells [2]; RPMI 5 mM glucose + 10% FBS, 0.000781 µM) | cell viability (SEM cells [2]; RPMI 5 mM glucose + 10% FBS, 0.00234 µM) | cell viability (SEM cells [2]; RPMI 5 mM glucose + 10% FBS, 0.00702 µM) | cell viability (SEM cells [2]; RPMI 5 mM glucose + 10% FBS, 0.0211 µM) | cell viability (SEM cells [2]; RPMI 5 mM glucose + 10% FBS, 0.0632 µM) | cell viability (SEM cells [2]; RPMI 5 mM glucose + 10% FBS, 0.19 µM) | cell viability (SEM cells [2]; RPMI 5 mM glucose + 10% FBS, 0.569 µM) | cell viability (SEM cells [2]; RPMI 5 mM glucose + 10% FBS, 1.71 µM) | cell viability (SEM cells [2]; RPMI 5 mM glucose + 10% FBS, 5.12 µM) | cell viability (SEM cells [2]; RPMI 5 mM glucose + 10% FBS, 15.4 µM) | cell viability (SEM cells [2]; RPMI 5 mM glucose + 10% FBS, 46.1 µM)
C=CC(=O)Nc1cc(NC(=O)c2ccc(C)c(NC(=O)c3ccno3)c2)cc(C(F)(F)F)c1 | 431 | 457 | 467 | 423 | 451 | 438 | 459 | 454 | 452 | – | – | – | – | – | – | – | – | – | – | – | – | – | – | – | – | – | – | – | – | – | –
COC1=CC=C2[C@H]3CC[C@]4(C)[C@H](CC[C@H]4[C@@H]3CCC2=C1)NCCCCCCN5C(=O)\C=C/C5=O | 434 | 444 | 462 | 472 | 459 | 408 | 456 | 448 | 444 | – | – | – | – | – | – | – | – | – | – | – | – | – | – | – | – | – | – | – | – | – | –
c1nc2c(NC3CCCCC3)nc(Nc3ccc(N4CCOCC4)cc3)nc2[nH]1 | 403 | 399 | 405 | 386 | 364 | 363 | 377 | 364 | 384 | 121% | 118% | 114% | 120% | 131% | 116% | 120% | 112% | 36.8% | 28.4% | 29.3% | 110% | 113% | 132% | 121% | 120% | 131% | 111% | 95.9% | 20.5% | 13.7% | 14.4%
O=C(Nc1cc(C(F)(F)F)cc(C(F)(F)F)c1)c1cc(Cl)ccc1O | 361 | 368 | 363 | 373 | 357 | 370 | 368 | 361 | 361 | – | – | – | – | – | – | – | – | – | – | – | – | – | – | – | – | – | – | – | – | – | –
CC(C)CN(C[C@@H](O)[C@H](Cc1ccccc1)NC(=O)O[C@H]1CCOC1)[S+](=O)([O-])c1ccc(N)cc1 | 440 | 453 | 443 | 410 | 369 | 365 | 396 | 382 | 362 | – | – | – | – | – | – | – | – | – | – | – | – | – | – | – | – | – | – | – | – | – | –
